# Data reported in patent publication US20110237670A1, “IMPROVEMENT OF NORMAL COGNITIVE FUNCTION” (priority 2008, published 2011).
# Columns and labels:
# [1] = test system: patients with Alzheimer's disease; conditions: human, in vivo; cited from earlier work
# healthy volunteers = conditions: human, in vivo; cited from earlier work
# Male NMRI mice [2] = assay: novel object recognition test (learning and memory formation); assay type: in vivo
# Procedure: (§1) Male NMRI mice (Charles River, Germany, 25-35 g) were used in examples 1, 2 and 3. The animals were housed nine per cage in a colony room under constant temperature (20±1° C.) and humidity (50±5%). Animals were allowed to acclimatize for at least one week prior to behavioral testing. The daylight cycle was maintained artificially (lights on from 0600 to 1800 hours) and behavioral experiments were conducted during the light phase. The Ethics Committee for Animal Experiments, Goteborg, Sweden, approved all experimental procedures used in the present study.
# There are several learning and memory tasks that are appropriate for study in rodents. One widely used is the novel object recognition test. The test involves exposing the rodent to two identical objects for a brief period of time (the introductory session). […] Furthermore, very similar aspects of memory formation (involving encoding, con solidation and retrieval of information) can be assessed in human using the Brief Visual Memory Task-Revised (BVMT-R). […]
# The object exploration time was manually scored from the videotapes. […]
# Data are expressed as means and standard errors of the mean (S.E.M.). […]
# A discrimination index was calculated for each animal: Tn/(Tf+Tn)*100 […]
# mice = conditions: pre-attentive information filtering; cited from earlier work
# Male NMRI mice [3] = assay: prepulse inhibition (PPI) of acoustic startle response model (pre-attentive information processing); assay type: in vivo; conditions: for increase in capacity to filter information pre-attentively (absolute change in PPI at day 1 compared to matching test): acute administration, day 1, FIG. 1B; for effect on PPI response: day 1 and day 3, prepulse level 9 dB over background noise
# Excerpt: One way to elucidate how substances affect our cognitive function is to measure how the brain processes information. Pre-attentive information processing is thought to be important for selective and efficient processing of sensory information and for coherent cognitive operations, and thus for memory and cognitive functions. Pre-attentive information processing can be assessed by using the prepulse inhibition (PPI) of acoustic startle response model. One major advantage of the PPI model is that it is a translational behavior. […] PPI is the reduction in reflex response to an intense stimulus when this stimulus is immediately preceded (30-500 ms) by a weak prestimulus. The presentation of the prestimulus, although not strong enough to elicit a measurable response by itself, evokes a short lasting sensory gating process in the brain, which is manifested by the attenuated response to the successive intense stimulus. PPI is hypothesized to reflect the ability of the central nervous system to filter out distracting and irrelevant stimuli before it reaches the cortex. An increased, i.e. improved, PPI could result in better inhibitory mechanisms that filter or gate intrinsic and extrinsic stimuli prior to higher order processing. […] Furthermore, PPI and other cognitive functions are regulated by the same cortico-striato-pallido-thalamic circuitry and association between these different cognitive domains has been shown.
# as §1
# Acoustic startle was recorded using a MOPS 3 startle response recording system (Metod och Produkt Svenska AB, Sweden). The animals were placed in small plexi glass cages (10×5.5×6 cm) that were suspended at the top of a piston. A movement of the animal in the cage caused a displacement of the piston, the acceleration of which was registered by a piezo-electric accelerometer. This signal was sampled and digitized by a microcomputer that also controlled the delivery of acoustic stimuli. Startle amplitude was defined as the maximum signal amplitude occurring 8-30 ms after the startle-eliciting stimulus. Four cages were used simultaneously and each cage was housed in a dimly lit and sound attenuated cabinet (52×42×38 cm). The cages were calibrated for equal sensitivity prior to testing and a mouse was always tested in the same cage at subsequent tests. The acoustic stimuli consisted of white noise, which was delivered by two high-frequency loudspeakers built into the ceiling of the cabinet.
# Each test session started with an 8-min adaptation period containing only white background noise at 65 dB (A). Startle pulse was set to 105 dB (A) and prepulse intensities to 3, 9 and 12 dB (A) above background noise. Duration of acoustic stimuli was set to 20 ms for both prepulses and startle pulses and interstimulus interval (ISI) was set to 40 ms. Following the adaptation period the animals were subjected to a series of 5 startle pulse-alone trials that were omitted from the analysis since they only served to accommodate the animals to the sudden stimulus onset. The animals were then subjected to a pseudo-randomized combination of 3 prepulse-alone trials for each prepulse intensity, 45 pulse-alone trials and 15 prepulse+pulse trials for each prepulse intensity. Trials were separated by 5-15 s intervals.
# All mice were first subjected to a pre-test to ensure that they expressed basal startle reactivity.
# [4] = in vivo, cited from earlier work
# Male NMRI mice [5] = assay: habituation of acoustic startle response (non-associative learning); assay type: in vivo; conditions: acute 1000 mg/kg intraperitoneally, block 6, versus saline, p<0.05, FIG. 2
# Procedure: as §1
# The model used to measure non-associative learning was habituation of acoustic startle response. Habituation refers to the decrease in response to repeated presentation of identical stimuli and the model used for this test is also translational in nature. Since habituation is a measure of how the brain filter outs irrelevant stimuli and focus selectively on important stimuli, it is thought to be a prerequisite for other forms of learning and cognitive functions.
# Acoustic startle was recorded using a MOPS 3 startle response recording system (see example 1). […]
# The first startle pulse response was omitted from statistical analysis since it was too variable to achieve significance. […] Habituation, the change in mean response amplitude over time, was calculated using the formula: […]
# [6] = test system: patients with schizophrenia; conditions: adjunctive treatment, 6 g/day; cited from earlier work
# humans = conditions: cited from earlier work
structure (smiles),measurement,setting,value
CC12CC3CC(C)(C1)CC(N)(C3)C2 [Memantine],effect on cognition in patients with Alzheimer's disease,[1],enhance cognition
same,effect on cognition in healthy volunteers,healthy volunteers,no or detrimental effects on cognition
NCCCC[C@H](N)C(=O)O [L-lysine],time exploring the two similar objects during the introductory session versus saline,Male NMRI mice [2]; 1000 mg/kg intraperitoneally 30 min before the introductory session,no difference
same,"exploration of the familiar object, recognition session compared with introductory session","Male NMRI mice [2]; 1000 mg/kg intraperitoneally, 90 min delay, p<0.05, FIG. 3B",significantly less exploration of the familiar object
same,effect on cognitive impairments induced by phencyclidine,mice,can restore cognitive impairments
same,pulse-alone response (acoustic startle; sedative properties),Male NMRI mice [3]; 500-2000 mg/kg,did not affect the pulse-alone response
same,increase in capacity to filter information pre-attentively (absolute change in PPI at day 1 compared to matching test),Male NMRI mice [3]; L-lysine 500 mg/kg intraperitoneally,28.7%
same,increase in capacity to filter information pre-attentively (absolute change in PPI at day 1 compared to matching test),Male NMRI mice [3]; L-lysine 1000 mg/kg intraperitoneally,51.3%
same,increase in capacity to filter information pre-attentively (absolute change in PPI at day 1 compared to matching test),Male NMRI mice [3]; L-lysine 2000 mg/kg intraperitoneally,9.0%
same,final PPI test at day 9,Male NMRI mice [3]; after a 6-day washout period,did not demonstrate any significant effects
same,effect on PPI response,Male NMRI mice [3]; doses 500 mg/kg and 1000 mg/kg,improved the PPI response in a dose related manner
same,effect on PPI response,Male NMRI mice [3]; highest dose 2000 mg/kg,did not affect PPI significantly
same,"effect of test day on PPI (day 1 versus day 3, repeated administration)","Male NMRI mice [3]; once daily for three days, 500-2000 mg/kg",no significant effect of test day
same,oral bioavailability,[4]; po,very good oral bioavailability
same,blood-brain barrier penetration,[4],easily penetrates the blood-brain barrier
same,habituation of the acoustic startle response,Male NMRI mice [5],improves the brain capacity to filter out irrelevant information
same,effect on symptoms in patients with schizophrenia,[6],possibly can improve some symptoms
same,reported adverse effects in humans,humans; L-lysine treatment in general,transient gastrointestinal problems in a few patients
same,adverse effects in long-term studies,humans; administration up to 2 years,have not revealed any adverse effects
same,reported adverse effects in short-term human studies,"humans; doses as high as 40 g/day, resolved as the dose was decreased",abdominal cramps and transient diarrhea
COc1cc2c(cc1OC)C(=O)C(CC1CCN(Cc3ccccc3)CC1)C2 (stereo not shown) [Donezepil],effect on cognition in patients with Alzheimer's disease,[1],enhance cognition
same,effect on cognition in healthy volunteers,healthy volunteers,no or detrimental effects on cognition
